Experiment [1] concerns the target T1, Human immunodeficiency virus type 1 reverse transcriptase (Human immunodeficiency virus 1, UniProt Q72547). The experiment in a line: Inhibition of HIV1 RT mediated RNA-dependent minus-strand DNA synthesis after 5 mins by gel-based assay.
Experiment [2] deals with T1, Human immunodeficiency virus type 1 reverse transcriptase. The experiment can be described thus: Inhibition of HIV1 RT mediated DNA-dependent plus-strand DNA polymerization after 5 mins by gel-based assay.
For experiment [3] the target is unchanged. The experiment in a line: Inhibition of HIV1 RT mediated DNA-dependent DNA synthesis initiation using DNA PPT-primed substrate.
Experiment [4] shares this target. The experiment in a line: Inhibition of HIV1 RT mediated DNA-dependent DNA synthesis initiation using RNA/DNAM duplex primed substrate by scintillation proximity assay. For orientation: In a scintillation proximity assay essentially only radioactivity close to the scintillant gives light.
Experiment [5] has the same target. The experiment in a line: Inhibition of HIV1 RT mediated DNA-dependent DNA synthesis initiation using RNA PPT primed substrate by scintillation proximity assay.
Experiment [6] has as its target T2, Human immunodeficiency virus type 1 reverse transcriptase (Human immunodeficiency virus 1, UniProt Q72547, K103N). The experiment can be described thus: Inhibition of HIV1 RT K103N mutant mediated DNA-dependent DNA polymerization using RNA/DNAM duplex primed substrate by scintillation proximity assay.
Experiment [7] deals with T2, Human immunodeficiency virus type 1 reverse transcriptase. The experiment in a line: Inhibition of HIV1 RT K103N mutant mediated DNA-dependent DNA polymerization using RNA PPT primed substrate by scintillation proximity assay.
Experiment [8] shares this target. The experiment can be described thus: Inhibition of HIV1 RT K103N mutant mediated DNA-dependent DNA polymerization using DNA PPT primed substrate by scintillation proximity assay.
Experiment [9] concerns the target T3, Human immunodeficiency virus type 1 reverse transcriptase (Human immunodeficiency virus 1, UniProt Q72547, Y181C). The experiment in a line: Inhibition of HIV1 RT Y181C mutant mediated DNA-dependent DNA polymerization using RNA/DNAM duplex primed substrate by scintillation proximity assay.
Experiment [10] addresses T3, Human immunodeficiency virus type 1 reverse transcriptase. The experiment can be described thus: Inhibition of HIV1 RT Y181C mutant mediated DNA-dependent DNA polymerization using RNA PPT primed substrate by scintillation proximity assay.
The target is the same in experiment [11]. The experiment can be described thus: Inhibition of HIV1 RT Y181C mutant mediated DNA-dependent DNA polymerization using DNA PPT primed substrate by scintillation proximity assay.
Experiment [12] has as its target T1, Human immunodeficiency virus type 1 reverse transcriptase. The experiment can be described thus: Inhibition of HIV1 RT mediated DNA-dependent DNA polymerization.
For experiment [13] the target is unchanged. The experiment can be described thus: Inhibition of HIV1 RT mediated DNA-dependent DNA polymerization using chimeric substrate with RNA PPT primer.
The target is the same in experiment [14]. The experiment can be described thus: Inhibition of HIV1 RT mediated DNA-dependent DNA polymerization using chimeric substrate with RNA PPT primer extended at 3' end with upto one deoxyribonucleotide.
For experiment [15] the target is unchanged. The experiment can be described thus: Inhibition of HIV1 RT mediated DNA-dependent DNA polymerization using chimeric substrate with RNA PPT primer extended at 3' end with upto 2 deoxyribonucleotides.
For experiment [16] the target is unchanged. The experiment in a line: Inhibition of HIV1 RT mediated DNA-dependent DNA polymerization using chimeric substrate with RNA PPT primer extended at 3' end with upto 3 deoxyribonucleotides.
Experiment [17] has the same target. The experiment in a line: Inhibition of HIV1 RT mediated DNA-dependent DNA polymerization using chimeric substrate with RNA PPT primer extended at 3' end with upto 9 deoxyribonucleotides.
Experiment [18] shares this target. The experiment in a line: Inhibition of HIV1 RT mediated DNA-dependent DNA polymerization using chimeric substrate with RNA PPT primer extended at 3' end with upto 12 deoxyribonucleotides.
A short description of experiment [19]: Inhibition of HIV1 RT D443N mutant mediated DNA-dependent DNA polymerization using chimeric substrate with RNA PPT primer. Also on record: species or system Human immunodeficiency virus 1.
Experiment [20] is described as follows: Inhibition of HIV1 RT D443N mutant mediated DNA-dependent DNA polymerization using chimeric substrate with RNA PPT primer extended at 3' end with upto one deoxyribonucleotide. Also noted: species or system Human immunodeficiency virus 1.
Experiment [21] has as its system Human immunodeficiency virus 1. The experiment in a line: Inhibition of HIV1 RT D443N mutant mediated DNA-dependent DNA polymerization.
Experiment [22] can be described thus: Inhibition of HIV1 RT D443N mutant mediated DNA-dependent DNA polymerization using chimeric substrate with RNA PPT primer extended at 3' end with upto 2 deoxyribonucleotides. Also noted: species or system Human immunodeficiency virus 1.
Experiment [23] can be described thus: Inhibition of HIV1 RT D443N mutant mediated DNA-dependent DNA polymerization using chimeric substrate with RNA PPT primer extended at 3' end with upto 3 deoxyribonucleotides. Also noted: species or system Human immunodeficiency virus 1.
The nature of experiment [24]: Inhibition of HIV1 RT D443N mutant mediated DNA-dependent DNA polymerization using chimeric substrate with RNA PPT primer extended at 3' end with upto 6 deoxyribonucleotides. Also noted: species or system Human immunodeficiency virus 1.
Experiment [25] is described as follows: Inhibition of HIV1 RT D443N mutant mediated DNA-dependent DNA polymerization using chimeric substrate with RNA PPT primer extended at 3' end with upto 9 deoxyribonucleotides. Also noted: species or system Human immunodeficiency virus 1.
Experiment [26] can be described thus: Inhibition of HIV1 RT D443N mutant mediated DNA-dependent DNA polymerization using chimeric substrate with RNA PPT primer extended at 3' end with upto 12 deoxyribonucleotides. Also on record: species or system Human immunodeficiency virus 1.

Calls of active or inactive are those of the source. No cut-off for these calls is given here.

A word on the IC50: it is the concentration that gives 50% inhibition.

With `CCc1cc(NCc2nc3c(Cl)ccc(Cl)c3o2)c(O)nc1C` [L-697661], the IC50 in [1] is 1400 nM; in experiment [2] it was 35 nM; in experiment [3], more than 10000 nM; in experiment [4], 230 nM; in experiment [5], 430 nM; in [6], more than 5000 nM. The IC50 in experiment [7] was more than 5000 nM; in [8], more than 5000 nM; in [9], more than 5000 nM; in experiment [10], more than 5000 nM; in experiment [11], more than 5000 nM; in experiment [12], 290 nM. For the same compound, the IC50 in experiment [13] came out at 280 nM; in experiment [14] it was 220 nM; in experiment [15], 280 nM; in experiment [16], 270 nM; in experiment [17] it was 320 nM; in experiment [18], 130 nM. Moreover, the IC50 stood at 440 nM in [19]; 240 nM in experiment [20]; 230 nM in experiment [22]; 240 nM in experiment [23]; 270 nM in experiment [24]; 130 nM in [25]. Further, the IC50 in experiment [26] was determined as 150 nM. The result in experiment [21] was inactive.

Turning to `Cc1cn([C@H]2C[C@H](N=[N+]=[N-])[C@@H](CO[P@](=O)(O)O[P@](=O)(O)OP(=O)(O)O)O2)c(=O)[nH]c1=O` [ZIDOVUDINE TRIPHOSPHATE], the results for the IC50 in [4] and in [5] were 360 nM and 320 nM, respectively.

Values taken from ChEMBL document CHEMBL1156428 (J Biol Chem, 2007).
